How the values were obtained:
[1] = tested on: unilateral 6-hydroxydopamine lesioned (hemiparkinsonian) rats; assay: L-dopa-dependent abnormal involuntary movement (AIM) inhibition in hemiparkinsonian rats; type: in vivo, rat; settings: unilaterally lesioned male rats, 10 mg/kg, L-dopa and benserazide 8 mg/kg each
Method: First, we have previously published that D3 receptor selective compounds could attenuate a hallucinogen-dependent head twitch response (HTR) in male DBA/2J mice. […] Second, we previously reported that D3 vs. D2 dopamine receptor subtype selective ligands could attenuate L-dopa dependent abnormal involuntary movement (AIM) scores in unilaterally lesioned (hemiparkinsonian) male rats, which is a model for L-dopa-Induced Dyskinesia (LID). […]
AIMs ratings were performed as previously described. The severity of the AIMs was quantified using lesioned rats that were observed individually in their home cages at 15 min intervals, starting 15 min after the injection of L-dopa for approximately 2 h. The AIMs were scored in four categories: (1) axial AIMs, including dystonic or choreiform torsion of the trunk and neck towards the side contralateral to the lesion; (2) limb AIMs, including jerky and/or dystonic movements of the forelimb contralateral to the lesion; (3) orolingual AIMs, including twitching of orofacial muscles with empty masticatory movements and protrusion of the tongue towards the side contralateral to the lesion and (4) locomotive AIMs, including increased locomotion with contralateral side bias. […]
The effect of Group was assessed using two-way analysis of variance (ANOVA) with time as the repeated measure. […]

[2] = molecular target: norepinephrine transporter (NET) (Homo sapiens, UniProt P23975); assay: PDSP off-target binding; settings: read-out: binding affinity NET (PDSP)
From the text: (§1) Further evaluation of the off-target binding of compound 6a was provided by the Psychoactive Drug Screening Program (PDSP) for a range of receptors including serotonin receptor subtypes, α-adrenergic receptor subtypes, β-adrenergic receptor subtypes, histaminergic receptor subtypes, muscarinic receptor subtypes, opioid receptor subtypes and the two sigma receptor subtypes.

α1b adrenergic receptor = α1b adrenergic receptor (Homo sapiens, UniProt P35368); assay: PDSP off-target binding; settings: read-out: binding affinity α1b (PDSP)
From the text: as §1

5-HT7A receptor = 5-HT7A receptor (Homo sapiens, UniProt P34969); assay: PDSP off-target binding; settings: read-out: binding affinity 5-HT7A (PDSP)
From the text: as §1

D5 dopamine receptor = D5 dopamine receptor (Homo sapiens, UniProt P21918); assay: PDSP off-target binding; settings: in words
From the text: as §1

α1a adrenergic receptor = α1a adrenergic receptor (Homo sapiens, UniProt P35348); assay: PDSP off-target binding; settings: read-out: binding affinity α1a (PDSP)
From the text: as §1

D1 dopamine receptor = D1 dopamine receptor (Homo sapiens, UniProt P21728); assay: PDSP off-target binding; settings: in words
From the text: as §1

[3] = molecular target: serotonin transporter (SERT) (Homo sapiens, UniProt P31645); assay: PDSP off-target binding; settings: read-out: binding affinity SERT (PDSP)
From the text: as §1

sigma-2 receptor = sigma-2 receptor (Homo sapiens, UniProt Q5BJF2); assay: PDSP off-target binding; settings: read-out: binding affinity sigma-2 (PDSP)
From the text: as §1

sigma-1 receptor = sigma-1 receptor (Homo sapiens, UniProt Q99720); assay: PDSP off-target binding; settings: read-out: binding affinity sigma-1 (PDSP)
From the text: as §1

[4] = molecular target: dopamine transporter (DAT) (Homo sapiens, UniProt Q01959); assay: PDSP off-target binding; settings: read-out: binding affinity DAT (PDSP)
From the text: as §1

α2c adrenergic receptor = α2c adrenergic receptor (Homo sapiens, UniProt P18825); assay: PDSP off-target binding; settings: read-out: binding affinity α2c (PDSP)
From the text: as §1

D4 dopamine receptor = D4 dopamine receptor (Homo sapiens, UniProt P21917); assay: PDSP off-target binding; settings: read-out: binding affinity D4 (PDSP)
From the text: as §1

α2b adrenergic receptor = α2b adrenergic receptor (Homo sapiens, UniProt P18089); assay: PDSP off-target binding; settings: read-out: binding affinity α2b (PDSP)
From the text: as §1

α1d adrenergic receptor = α1d adrenergic receptor (Homo sapiens, UniProt P25100); assay: PDSP off-target binding; settings: read-out: binding affinity α1d (PDSP)
From the text: as §1

5-HT2B receptor = 5-HT2B receptor (Homo sapiens, UniProt P41595); assay: PDSP off-target binding; settings: read-out: binding affinity 5-HT2B (PDSP)
From the text: as §1

α2a adrenergic receptor = α2a adrenergic receptor (Homo sapiens, UniProt P08913); assay: PDSP off-target binding; settings: read-out: binding affinity α2a (PDSP)
From the text: as §1

D3 dopamine receptor = D3 dopamine receptor (Homo sapiens, UniProt P35462); assay: PDSP off-target binding; settings: read-out: binding affinity D3 (PDSP)
From the text: as §1

D2 dopamine receptor = D2 dopamine receptor (Homo sapiens, UniProt P14416); assay: PDSP off-target binding; settings: in words
From the text: as §1

Sequence of D2 dopamine receptor (P14416 whole entry): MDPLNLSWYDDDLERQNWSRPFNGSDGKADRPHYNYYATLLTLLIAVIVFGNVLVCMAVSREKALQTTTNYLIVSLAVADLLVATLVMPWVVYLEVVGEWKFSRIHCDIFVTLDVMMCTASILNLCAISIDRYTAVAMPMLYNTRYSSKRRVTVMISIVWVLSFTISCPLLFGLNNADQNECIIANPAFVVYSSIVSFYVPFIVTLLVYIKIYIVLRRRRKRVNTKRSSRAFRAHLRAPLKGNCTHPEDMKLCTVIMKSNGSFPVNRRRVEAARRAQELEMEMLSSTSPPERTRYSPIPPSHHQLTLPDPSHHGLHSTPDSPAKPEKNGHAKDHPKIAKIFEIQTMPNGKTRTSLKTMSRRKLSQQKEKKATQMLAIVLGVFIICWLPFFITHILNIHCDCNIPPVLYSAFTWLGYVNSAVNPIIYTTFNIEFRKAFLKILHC
Sequence of dopamine transporter (DAT) (Q01959 whole entry, species assumed): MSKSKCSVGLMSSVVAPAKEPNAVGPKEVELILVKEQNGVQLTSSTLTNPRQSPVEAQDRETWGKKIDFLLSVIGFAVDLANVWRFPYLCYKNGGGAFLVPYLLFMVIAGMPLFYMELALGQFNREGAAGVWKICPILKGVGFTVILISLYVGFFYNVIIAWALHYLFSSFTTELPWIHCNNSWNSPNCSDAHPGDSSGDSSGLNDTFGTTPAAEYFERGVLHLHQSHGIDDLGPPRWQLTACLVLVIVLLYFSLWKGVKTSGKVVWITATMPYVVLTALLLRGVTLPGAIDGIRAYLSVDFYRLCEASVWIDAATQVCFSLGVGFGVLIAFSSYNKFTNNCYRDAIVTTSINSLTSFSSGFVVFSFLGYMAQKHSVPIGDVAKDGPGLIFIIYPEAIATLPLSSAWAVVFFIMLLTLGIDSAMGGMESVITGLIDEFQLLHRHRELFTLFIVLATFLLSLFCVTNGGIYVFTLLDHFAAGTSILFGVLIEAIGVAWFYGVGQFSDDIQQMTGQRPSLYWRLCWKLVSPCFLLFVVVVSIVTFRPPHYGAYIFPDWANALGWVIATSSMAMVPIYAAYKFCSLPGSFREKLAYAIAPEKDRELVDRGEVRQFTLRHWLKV
Sequence of D1 dopamine receptor (P21728 whole entry): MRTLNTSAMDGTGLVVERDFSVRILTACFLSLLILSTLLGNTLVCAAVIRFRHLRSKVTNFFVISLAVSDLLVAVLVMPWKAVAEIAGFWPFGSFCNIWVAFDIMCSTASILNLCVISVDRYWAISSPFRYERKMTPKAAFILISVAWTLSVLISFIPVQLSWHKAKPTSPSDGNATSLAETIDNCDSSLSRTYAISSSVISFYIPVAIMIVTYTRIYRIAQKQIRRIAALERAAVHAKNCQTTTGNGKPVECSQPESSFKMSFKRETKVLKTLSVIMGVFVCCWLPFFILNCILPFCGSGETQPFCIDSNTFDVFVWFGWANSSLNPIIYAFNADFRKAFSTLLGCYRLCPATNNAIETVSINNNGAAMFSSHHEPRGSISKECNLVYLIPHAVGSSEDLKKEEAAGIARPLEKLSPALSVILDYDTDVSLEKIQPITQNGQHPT
Sequence of α1d adrenergic receptor (P25100 whole entry): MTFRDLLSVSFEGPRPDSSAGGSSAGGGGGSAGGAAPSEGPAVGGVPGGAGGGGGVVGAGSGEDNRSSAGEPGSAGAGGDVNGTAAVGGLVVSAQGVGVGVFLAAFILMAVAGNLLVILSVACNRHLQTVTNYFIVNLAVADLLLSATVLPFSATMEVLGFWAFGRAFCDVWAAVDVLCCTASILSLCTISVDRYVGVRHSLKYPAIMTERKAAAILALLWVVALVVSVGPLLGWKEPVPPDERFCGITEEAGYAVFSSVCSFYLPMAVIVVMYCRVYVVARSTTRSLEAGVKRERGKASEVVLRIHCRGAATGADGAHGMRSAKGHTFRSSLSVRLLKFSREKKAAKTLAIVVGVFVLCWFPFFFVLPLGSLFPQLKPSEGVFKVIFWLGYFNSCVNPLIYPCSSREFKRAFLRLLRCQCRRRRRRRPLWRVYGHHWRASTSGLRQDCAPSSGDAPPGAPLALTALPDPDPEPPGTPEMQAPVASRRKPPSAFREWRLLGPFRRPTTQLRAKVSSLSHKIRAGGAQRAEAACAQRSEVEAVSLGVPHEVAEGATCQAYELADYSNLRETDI
Sequence of D4 dopamine receptor (P21917 whole entry): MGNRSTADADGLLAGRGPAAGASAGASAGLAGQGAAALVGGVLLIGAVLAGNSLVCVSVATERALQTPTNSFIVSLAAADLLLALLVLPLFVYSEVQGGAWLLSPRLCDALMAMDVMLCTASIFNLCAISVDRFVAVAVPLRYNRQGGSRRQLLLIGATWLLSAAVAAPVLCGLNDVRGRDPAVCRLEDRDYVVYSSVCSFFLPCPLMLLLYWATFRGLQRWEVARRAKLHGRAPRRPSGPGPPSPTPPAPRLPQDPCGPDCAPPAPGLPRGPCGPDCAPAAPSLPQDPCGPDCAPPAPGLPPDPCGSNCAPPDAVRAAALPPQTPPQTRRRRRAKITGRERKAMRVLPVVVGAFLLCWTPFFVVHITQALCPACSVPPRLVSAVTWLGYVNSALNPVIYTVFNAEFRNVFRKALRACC
Sequence of serotonin transporter (SERT) (P31645 whole entry, species assumed): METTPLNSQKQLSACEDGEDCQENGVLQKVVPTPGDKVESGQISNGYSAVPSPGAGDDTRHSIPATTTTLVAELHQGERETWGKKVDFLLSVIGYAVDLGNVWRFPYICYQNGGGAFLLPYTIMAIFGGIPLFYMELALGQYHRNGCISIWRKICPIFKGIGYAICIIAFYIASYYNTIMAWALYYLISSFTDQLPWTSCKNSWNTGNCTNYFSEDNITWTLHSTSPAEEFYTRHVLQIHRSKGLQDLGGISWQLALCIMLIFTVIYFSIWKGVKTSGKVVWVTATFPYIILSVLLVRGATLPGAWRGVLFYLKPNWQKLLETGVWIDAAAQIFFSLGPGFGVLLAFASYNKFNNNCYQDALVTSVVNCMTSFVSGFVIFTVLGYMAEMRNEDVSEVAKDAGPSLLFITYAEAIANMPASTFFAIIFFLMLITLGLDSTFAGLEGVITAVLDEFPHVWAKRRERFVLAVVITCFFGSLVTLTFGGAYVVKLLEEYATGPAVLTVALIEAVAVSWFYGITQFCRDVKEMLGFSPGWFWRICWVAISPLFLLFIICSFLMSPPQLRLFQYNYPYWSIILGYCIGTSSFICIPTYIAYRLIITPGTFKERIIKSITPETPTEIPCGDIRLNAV
Sequence of α2b adrenergic receptor (P18089 whole entry): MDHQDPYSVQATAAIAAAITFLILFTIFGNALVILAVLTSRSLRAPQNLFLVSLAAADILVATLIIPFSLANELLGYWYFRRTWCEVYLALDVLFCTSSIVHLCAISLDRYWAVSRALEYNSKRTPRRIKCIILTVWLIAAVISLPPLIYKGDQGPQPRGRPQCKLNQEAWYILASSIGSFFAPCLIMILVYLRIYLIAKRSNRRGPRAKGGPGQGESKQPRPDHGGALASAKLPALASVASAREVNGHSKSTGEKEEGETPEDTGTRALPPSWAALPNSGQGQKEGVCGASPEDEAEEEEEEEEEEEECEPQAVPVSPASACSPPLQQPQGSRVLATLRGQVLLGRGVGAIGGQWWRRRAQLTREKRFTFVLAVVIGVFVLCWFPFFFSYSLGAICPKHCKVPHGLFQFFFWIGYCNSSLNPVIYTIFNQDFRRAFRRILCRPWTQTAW
Sequence of 5-HT7A receptor (P34969 1-445 isoform P34969-2): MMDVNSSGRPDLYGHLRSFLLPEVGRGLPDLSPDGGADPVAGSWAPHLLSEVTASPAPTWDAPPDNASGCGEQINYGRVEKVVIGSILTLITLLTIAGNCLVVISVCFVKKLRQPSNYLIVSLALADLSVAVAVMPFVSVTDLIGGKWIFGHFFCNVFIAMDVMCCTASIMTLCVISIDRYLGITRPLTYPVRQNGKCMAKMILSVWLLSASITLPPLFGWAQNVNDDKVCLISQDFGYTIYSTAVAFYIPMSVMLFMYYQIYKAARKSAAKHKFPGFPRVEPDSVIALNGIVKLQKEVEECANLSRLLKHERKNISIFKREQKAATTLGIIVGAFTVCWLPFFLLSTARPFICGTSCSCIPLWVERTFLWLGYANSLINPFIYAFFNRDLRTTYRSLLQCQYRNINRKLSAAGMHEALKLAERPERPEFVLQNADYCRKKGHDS
Sequence of α1b adrenergic receptor (P35368 whole entry): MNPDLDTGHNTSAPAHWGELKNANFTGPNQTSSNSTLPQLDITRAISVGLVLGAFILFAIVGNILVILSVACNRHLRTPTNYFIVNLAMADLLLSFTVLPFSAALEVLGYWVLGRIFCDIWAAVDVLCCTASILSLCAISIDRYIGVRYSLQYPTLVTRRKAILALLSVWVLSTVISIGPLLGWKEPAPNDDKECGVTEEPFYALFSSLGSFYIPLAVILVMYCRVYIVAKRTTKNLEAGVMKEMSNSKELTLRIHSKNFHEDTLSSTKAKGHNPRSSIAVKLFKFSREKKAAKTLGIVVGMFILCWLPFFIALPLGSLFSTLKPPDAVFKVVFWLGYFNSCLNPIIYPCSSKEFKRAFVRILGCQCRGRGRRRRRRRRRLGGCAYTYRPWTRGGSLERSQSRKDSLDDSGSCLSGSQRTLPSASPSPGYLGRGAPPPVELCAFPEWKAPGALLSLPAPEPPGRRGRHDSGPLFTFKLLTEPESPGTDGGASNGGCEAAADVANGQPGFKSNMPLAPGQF
Sequence of sigma-2 receptor (Q5BJF2 whole entry, species assumed): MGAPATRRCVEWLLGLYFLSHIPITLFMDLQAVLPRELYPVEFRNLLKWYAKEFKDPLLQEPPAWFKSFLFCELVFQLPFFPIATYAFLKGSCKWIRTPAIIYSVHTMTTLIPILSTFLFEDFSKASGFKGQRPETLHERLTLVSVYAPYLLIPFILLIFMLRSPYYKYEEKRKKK
Sequence of sigma-1 receptor (Q99720 whole entry, species assumed): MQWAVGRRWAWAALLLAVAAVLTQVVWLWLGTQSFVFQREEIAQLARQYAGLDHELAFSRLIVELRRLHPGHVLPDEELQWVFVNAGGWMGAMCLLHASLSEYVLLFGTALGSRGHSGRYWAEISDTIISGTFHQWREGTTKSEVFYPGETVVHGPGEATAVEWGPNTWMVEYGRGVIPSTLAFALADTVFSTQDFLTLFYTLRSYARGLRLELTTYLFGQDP

- Ki [2]: > 650 nM
- Ki (α1b adrenergic receptor): > 100 nM
- Ki (5-HT7A receptor): 73.6 nM
- binding affinity D5 (PDSP) (D5 dopamine receptor): low affinity binding
- Ki (α1a adrenergic receptor): 9.8 nM
- binding affinity D1 (PDSP) (D1 dopamine receptor): low affinity binding
- Ki [3]: > 750 nM
- Ki (sigma-2 receptor): 33.1 nM
- Ki (sigma-1 receptor): > 175 nM
- Ki [4]: > 190 nM
- Ki (α2c adrenergic receptor): 27.1 nM
- Ki (D4 dopamine receptor): > 1500 nM
- Ki (α2b adrenergic receptor): > 100 nM
- Ki (α1d adrenergic receptor): 16.6 nM
- Ki (5-HT2B receptor): 36.3 nM
- Ki (α2a adrenergic receptor): 15.2 nM
- Ki (D3 dopamine receptor): 0.2 nM
- binding affinity D2 (PDSP) (D2 dopamine receptor): low affinity binding
SMILES: O=C(NCCCCN1CCN(c2ccccc2F)CC1)c1ccc(-c2ccsc2)cc1 [Compound 6a]
- L-dopa dependent AIM scores [1]: attenuate the AIM scores
